Measured values from patent US20060147923A1, “Nucleic acid sequences encoding novel point mutations on mglur2 and mglur3” (priority 2002, published 2006).

Target: T1, wild type mGluR2 (Homo sapiens, UniProt Q14416)
T1 construct: expressed in transfected cells; host or cells: HEK293 cells, transient lipid transfection (Effectene, MAGEC plate protocol)
Test: Phosphoinositide hydrolysis, wild-type mGluR2 (FIG. 1)
Type: cell-based
Settings: HEK-293 cells transfected with wild-type mGluR2; 5 uM glutamate; normalized to 1 mM glutamate control
Source text: For mGluR2 and mGluR3 mutants, the mGluR2/Gα16 nucleic acids are mixed with a lipid-based transfection reagent and are deposited into a well of a multi-well plate coated with fibronectin. The resulting DNA/lipid complexes are subsequently dried in vacuo then seeded with HEK293 cells. This is based on a method designated as MAGECTM, and disclosed in U.S. Provisional Application No. 60/372,476, filed Apr. 15, 2002, and titled, “Matrix Analyses of Gene Expression in Cells.”
11. Approximately forty hours after plating, the cells are analyzed in the phosphoinositide hydrolysis assay.
Phosphoinositide hydrolysis was determined by measuring the accumulation of tritiated inositol monophosphate ([^3H]-IP1) in the presence of LiCl. The method is taken from Berridge: Biochem J (1983) 212: 849-58. This determination provides for comparative data on the level of potentiation and loss of potentiation when testing a purported or known allosteric modulator in the presence of glutamate and either a wild-type mGluR2 or mGluR3 and at least one mutant of the respective mGluR2 or mGluR3.
1. HEK293 cells that were previously transiently transfected with hmGluR2 and Gα16 were labeled overnight with 1 μCi/well myo-[2-^3H]-inositol in a […] DMEM medium.
2. […]
12. The sample was quantified in a scintillation counter after a two-hour waiting period. […]

T1 sequence (Q14416 19-872): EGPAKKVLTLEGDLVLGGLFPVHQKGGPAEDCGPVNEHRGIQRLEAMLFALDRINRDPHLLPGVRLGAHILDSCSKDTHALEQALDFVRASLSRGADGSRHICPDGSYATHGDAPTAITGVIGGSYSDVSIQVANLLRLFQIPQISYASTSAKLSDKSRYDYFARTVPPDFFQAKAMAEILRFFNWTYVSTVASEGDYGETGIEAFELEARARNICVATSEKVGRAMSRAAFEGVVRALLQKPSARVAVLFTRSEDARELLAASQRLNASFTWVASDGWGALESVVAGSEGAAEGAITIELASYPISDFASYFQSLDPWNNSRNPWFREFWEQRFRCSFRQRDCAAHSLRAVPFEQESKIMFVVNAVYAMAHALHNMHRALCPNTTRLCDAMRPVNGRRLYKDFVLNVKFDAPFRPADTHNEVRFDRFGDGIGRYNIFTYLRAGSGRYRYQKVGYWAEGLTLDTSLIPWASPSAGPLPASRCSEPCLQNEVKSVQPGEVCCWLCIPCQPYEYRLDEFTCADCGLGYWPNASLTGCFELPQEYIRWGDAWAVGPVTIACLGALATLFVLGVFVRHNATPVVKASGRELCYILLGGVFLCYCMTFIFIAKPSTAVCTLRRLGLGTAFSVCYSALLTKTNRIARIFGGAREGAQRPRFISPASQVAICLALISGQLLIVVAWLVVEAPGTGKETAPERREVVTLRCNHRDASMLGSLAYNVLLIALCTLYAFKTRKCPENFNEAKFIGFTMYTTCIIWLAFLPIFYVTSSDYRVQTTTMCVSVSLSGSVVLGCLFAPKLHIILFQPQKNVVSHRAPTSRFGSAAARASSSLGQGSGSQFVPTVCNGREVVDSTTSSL

COc1ccccc1Oc1cccc(N(Cc2cccnc2)S(=O)(=O)CC(F)(F)F)c1 [Compound A]
effect of modulator on response to glutamate, percent response compared to 1 mM glutamate positive control: up-regulating the response of mGluR2
